How the values were obtained:
[1] = target: T1, Leukotriene B4 receptor 1 (Homo sapiens, UniProt Q15722); experiment: Compound was evaluated for inhibitory activity against LTB4 receptor in human neutrophil membranes using [3H]- LTB4 as radioligand; type: cell membranes
[2] = target: T1, Leukotriene B4 receptor 1; experiment: Compound was evaluated for relative binding affinity against LTB4 receptor in human neutrophil membranes using [3H]- LTB4 as radioligand relative to leukotriene B4; type: cell membranes

T1 sequence (Q15722 whole entry): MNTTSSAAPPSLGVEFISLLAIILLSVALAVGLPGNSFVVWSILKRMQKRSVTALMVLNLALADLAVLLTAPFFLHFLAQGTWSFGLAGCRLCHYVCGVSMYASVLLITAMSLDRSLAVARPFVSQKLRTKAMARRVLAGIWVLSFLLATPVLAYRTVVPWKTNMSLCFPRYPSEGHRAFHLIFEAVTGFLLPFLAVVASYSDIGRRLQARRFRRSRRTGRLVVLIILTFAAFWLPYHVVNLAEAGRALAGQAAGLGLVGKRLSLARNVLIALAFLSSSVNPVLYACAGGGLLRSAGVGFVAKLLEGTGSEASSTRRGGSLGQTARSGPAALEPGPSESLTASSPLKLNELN

O=C(O)C[C@]1(O)CCC[C@H](/C=C/C(O)CCCCc2ccccc2)C1 (stereo in doubt; 1d) [listing 1 of 2 here]
IC50 [1]: 0.8 µM

CCCCCCCCC(O)/C=C/[C@H]1CCC[C@@](O)(CC(=O)O)C1 (stereo not given in full)
IC50 [1]: 1 µM
relative binding affinity (RBA) [2]: 0.008

O=C(O)C[C@]1(O)CCC[C@H](/C=C/C(O)CCCCc2ccccc2)C1 (stereo in doubt; 1d) [listing 2 of 2 here]
relative binding affinity (RBA) [2]: 0.01

O=C(O)C[C@]1(O)CCC[C@H](/C=C/C(O)CCCCc2ccccc2)C1 (stereo in doubt; 1d1) [listing 1 of 2 here]
relative binding affinity (RBA) [2]: 0.025

O=C(O)C[C@]1(O)CCC[C@H](/C=C/C(O)CCCCc2ccccc2)C1 (stereo in doubt; 1d1) [listing 2 of 2 here]
IC50 [1]: 0.3 µM

CCCCCC(O)/C=C/[C@H]1CCC[C@@](O)(CCCC(=O)O)C1 (stereo not given in full)
IC50 [1]: 70 µM

CCCCCC(O)/C=C/[C@H]1CCC[C@@](O)(CC(=O)O)C1 (stereo not given in full)
IC50 [1]: 8 µM
relative binding affinity (RBA) [2]: 0.001

O=C(O)C[C@]1(O)CCC[C@H](/C=C/C(O)CCCCc2ccccc2)C1 (stereo in doubt; 1d2)
IC50 [1]: 70 µM

Source: ChEMBL document CHEMBL1129702, “Synthesis and pharmacological profile of new 1,3-disubstituted cyclohexanes as leukotriene B4 receptor antagonists” (Bioorg Med Chem Lett, 1996)
